The text below walks through data of patent US8835438B2, “Method of treating memory/learning dysfunctions caused by schizophrenia with lurasidone” (Sumitomo Dainippon Pharma Co., Ltd., priority 2004, dated 2014).

“Also recorded” adds a separate entry of the source. Marks after values point to notes of the source that are not given here.

Series [1] has as its system MK-801-induced memory/learning dysfunctions. Kind of series: Step-through passive avoidance response test, MK-801-induced memory/learning dysfunctions. In kind it is in vivo, Wistar male rats. As to the method:
Wistar male rats (7 weeks old) were used. […] Serotonin 5-HT 1A receptor antagonist WAY-100635 or noradrenaline a2 receptor antagonist 1-PP was dissolved in a physiological saline solution (Otsuka Pharmaceutical Co., Ltd.) and used as a test compound. As an NMDA type receptor antagonist, MK-801 hydrogen maleate (SIGMA-ALDRICH M-107) was dissolved in a physiological saline solution (Otsuka Pharmaceutical Co., Ltd.). […] For the evaluation of state-dependency of MC-801, MK-801 was administered before the training session, and a physiological saline solution was administered before the testing session instead. The dosing value thereof was 5 ml/kg for each.
The step-through type passive avoidance response test was carried out in the following manners with the use of an apparatus consisting of a light-dark box, a slide door dividing the light-dark box and a shock generator (manufactured by O'hara & Co., Ltd., PA-2030A, PA-3001A) as an experimental apparatus. Namely, on Day 1 of the experiment, after a test compound and MK-801 were administered, the rats were put into the light box of the experimental apparatus where the back of each rat was directed to the dark box. Then, 10 seconds later, a slide door set at the border between the dark box and the light box was opened. Due to the habits of the rats, once the rats entered into the dark box, the slide door was quickly closed. At three seconds after entering into the dark box, an electroconvulsive shock ([…], for 3 seconds) was given to the rats. The period between the time just after the slide door was opened and the time at which the rats entered into the dark box was measured as a step-through latency. […] On Day 2 of the experiment, the testing session was carried out about 24 hours after the training session. Thirty minutes prior to the testing session, MK-801 or a vehicle thereof, i.e., a physiological saline solution, was subcutaneously administered to the rats. The procedures of the testing session were carried out in the same manner to the training session except that no electroconvulsive shock was given. The step-through latency at the testing session was measured up to 300 seconds, and the step-through latency over 300 seconds was regarded as 300 seconds. […] The statistical analysis of the % of animals avoiding was done by x^2 test with Bonferroni's correction. The animals were used in a group of 10 to 25 animals per group, and the data was expressed by percentage.

Series [2] concerns memory/learning dysfunctions in the passive avoidance response. In words: Passive avoidance response test, drug administered alone without MK-801. In kind it is in vivo, Wistar male rats. The settings on record: drug alone without MK-801, passive avoidance response, rats. As for the experimental part: Then, 10 seconds later, a slide door set at the border between the dark box and the light box was opened. Due to the habits of the rats, once the rats entered into the dark box, the slide door was quickly closed. At three seconds after entering into the dark box, an electroconvulsive shock ([…], for 3 seconds) was given to the rats. The period between the time just after the slide door was opened and the time at which the rats entered into the dark box was measured as a step-through latency. […] On Day 2 of the experiment, the testing session was carried out about 24 hours after the training session. […] The procedures of the testing session were carried out in the same manner to the training session except that no electroconvulsive shock was given. The step-through latency at the testing session was measured up to 300 seconds, and the step-through latency over 300 seconds was regarded as 300 seconds. […] The statistical analysis of the % of animals avoiding was done by x^2 test with Bonferroni's correction. The animals were used in a group of 10 to 25 animals per group, and the data was expressed by percentage.

Series [3] deals with methamphetamine-induced hyperponesis. The note with it: rats; reflects anti-psychotic activity; cited from earlier work.
Setting [4] is: MK-801 administered only in the training session.
The mark [5] stands for this setting: MK-801 prior to both training and testing sessions, MK-801 + drug 1 mg/kg p.o.
The mark [6] stands for this setting: MK-801 prior to both training and testing sessions, MK-801 + drug 3 mg/kg p.o.
Where [7] appears, read: MK-801 prior to training session only, MK-801 + drug 3 mg/kg p.o.
[8] abbreviates: MK-801 administered in both training and testing sessions.
The mark [9] stands for this setting: MK-801 prior to both training and testing sessions, MK-801 + drug 0.3 mg/kg p.o.
The mark [10] stands for this setting: MK-801 prior to both training and testing sessions, MK-801 + drug 10 mg/kg p.o.
Setting [11] is: MK-801 prior to both training and testing sessions, MK-801 + drug 0.1 mg/kg p.o.

Regarding `Cl.Cl.c1cnc(N2CCNCC2)nc1` [1-PP, 1-(2-pyrimidyl)piperazine dihydrochloride], the “drug efficacy on memory dysfunction (in words)” value (shortened to “drug efficacy”) in series [1] (MK-801 administered in both training and testing sessions, dihydrochloride) was “memory/learning improving efficacy is recognized; also recorded: a significant improving activity was observed”; in series [1] (setting [4]) it was “no drug efficacy”. The figures for the “% of animals avoiding” value in series [1] (setting [5]), in series [1] (setting [6]) and in series [1] (setting [7]) were 47* %, 67* % and 8%, respectively.
In the case of `O=C1CCc2ccc(OCCCCN3CCN(c4cccc(Cl)c4Cl)CC3)cc2N1` [Aripiprazole, aripiprazole], in series [2], the “Minimum dose to induce memory dysfunction by single application” value (“Minimum dose” for short) was 10 mg/kg, p.o. Further, in series [1] (setting [8]), the “drug efficacy” value is “no drug efficacy was observed”. The “% of animals avoiding” value in series [1] (setting [5]) and in series [1] (setting [6]) was 16% throughout.
For `CN1CCN(C2=Nc3cc(Cl)ccc3Nc3ccccc32)CC1` [Clozapine, clozapine], in series [2], the “Minimum dose” value is reported as 10 mg/kg, p.o. Further, the “% of animals avoiding” value is 44* % in series [1] (setting [9]), 36* % in series [1] (setting [5]), 20% in series [1] (setting [6]) and 10% in series [1] (setting [10]).
In the case of `O=C(CCCN1CCC(O)(c2ccc(Cl)cc2)CC1)c1ccc(F)cc1` [Haloperidol], in series [2], the “Minimum dose” value is recorded as 10 mg/kg, p.o. Further, the “drug efficacy” value in series [1] (setting [8]) was “no drug efficacy was observed”. The “% of animals avoiding” value in series [1] (setting [11]) was found to be 0%; in series [1] (setting [9]) it was 5%; in series [1] (setting [5]), 15%; in series [1] (setting [6]) it was 10%.
For the compound `O=C1[C@@H]2[C@H]3CC[C@H](C3)[C@@H]2C(=O)N1C[C@@H]1CCCC[C@H]1CN1CCN(c2nsc3ccccc23)CC1` [Lurasidone, lurasidone], the “Minimum dose” value in series [2] is >30 mg/kg, p.o. The “drug efficacy” value in series [1] (setting [8]) was “memory/learning improving efficacy is recognized; also recorded: a significant improving activity was observed”; in series [1] (setting [4]), “no drug efficacy”. Further, the “% of animals avoiding” value is recorded as 40* % in series [1] (setting [9]); 35* % in series [1] (setting [5]); 75* % in series [1] (setting [6]); 70* % in series [1] (setting [10]); 20% in series [1] (MK-801 prior to training session only, MK-801 + drug 0.3 mg/kg p.o.); 20% in series [1] (MK-801 prior to training session only, MK-801 + drug 1 mg/kg p.o.). For the same compound, the “% of animals avoiding” value amounted to 30% in series [1] (setting [7]) and 20% in series [1] (MK-801 prior to training session only, MK-801 + drug 10 mg/kg p.o.).
`C[C@]12N[C@H](Cc3ccccc31)c1ccccc12` [MK-801]: in series [1] (MK-801 0.05 mg/kg s.c. alone, administered prior to training session only), the “% of animals avoiding, group treated with MK-801” value is on record as 0%. Moreover, the “step-through latency (in words)” value in series [1] (MK-801 before training session and saline before testing session, compared with MK-801 in both sessions) is given as “nearly equal decrease in the step-through latency”.
For the compound `Cc1cc2c(s1)Nc1ccccc1N=C2N1CCN(C)CC1` [Olanzapine, olanzapine], the “% of animals avoiding” value in series [1] (setting [9]) amounted to 15%; in series [1] (setting [5]) it was 20%; in series [1] (setting [6]), 20%; in series [1] (setting [10]), 10%.
For the compound `OCCOCCN1CCN(C2=Nc3ccccc3Sc3ccccc32)CC1` [Quetiapine, quetiapine], the “Minimum dose” value in series [2] is 30 mg/kg, p.o. In addition, the “dose to inhibit 50% of methamphetamine-induced hyperponesis (ED50)” value in series [3] is recorded as “about 100 mg/kg, p.o”. The “drug efficacy” value in series [1] (setting [8]) is on record as “memory/learning improving efficacy is recognized; also recorded: a significant improving activity was observed”. In addition, the “% of animals avoiding” value was 10% in series [1] (setting [9]), 20% in series [1] (setting [5]), 30% in series [1] (setting [6]) and 50* % in series [1] (setting [10]).
As to `Cc1nc2n(c(=O)c1CCN1CCC(c3noc4cc(F)ccc34)CC1)CCCC2` [Risperidone, risperidone], in series [2], the “Minimum dose” value is reported as 3 mg/kg, p.o. Besides, the “drug efficacy” value in series [1] (setting [8]) is recorded as “memory/learning improving efficacy is recognized”. Further, the “% of animals avoiding” value in series [1] (setting [11]) was determined as 20%; in series [1] (setting [9]) it was 20%; in series [1] (setting [5]), 28%; in series [1] (setting [6]), 10%.
In the case of `COc1ccccc1N1CCN(CCN(C(=O)C2CCCCC2)c2ccccn2)CC1` [WAY-1000635], the “drug efficacy” value in series [1] (MK-801 administered in both training and testing sessions, listed as WAY-100635) was “a significant improving activity was observed”; in series [1] (MK-801 administered in both training and testing sessions, listed as serotonin 5-HT 1A receptor antagonist), “memory/learning improving efficacy is recognized”. Further, the “% of animals avoiding” value is listed as 30% in series [1] (setting [9]), 40* % in series [1] (setting [5]) and 30% in series [1] (setting [6]).
